From patent US20260365670A1, “EGFR INHIBITORS AND USES THEREOF” (DIZAL (JIANGSU) PHARMACEUTICAL CO., LTD., priority 2022, published 2026)
Where two headings read alike, the source gives them in different places.

Key:
EGFR L858R = target: T1, EGFR L858R (Homo sapiens, UniProt P00533, L858R); assay: Inhibition of EGFR L858R biochemical enzymatic activity (HTRF); conditions: 1 mM ATP, 1 h at room temperature
T1 construct: purchased Carna Bio
How it was run: (§1)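 For IC50 determination by four-parameter logistic fit, EDTA-quenched 1 h room-temperature reactions (1 mM ATP, 1 μM TK Substrate-biotin) were read by HTRF. The 665/615 nm emission ratio after 320 nm excitation served as the activity signal.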

EGFR Exon19Del/T790M = target: T2, EGFR Exon19Del/T790M (Homo sapiens, UniProt P00533, DEL746-750/T790M); assay: Inhibition of EGFR Exon19Del/T790M biochemical enzymatic activity (HTRF); conditions: EGFR Exon19Del/T790M, 1 mM ATP, 1 h at room temperature
T2 construct: purchased Carna Bio
T2 sequence (P00533 with tags, fused parts or gaps DEL746-750/T790M limits assumed): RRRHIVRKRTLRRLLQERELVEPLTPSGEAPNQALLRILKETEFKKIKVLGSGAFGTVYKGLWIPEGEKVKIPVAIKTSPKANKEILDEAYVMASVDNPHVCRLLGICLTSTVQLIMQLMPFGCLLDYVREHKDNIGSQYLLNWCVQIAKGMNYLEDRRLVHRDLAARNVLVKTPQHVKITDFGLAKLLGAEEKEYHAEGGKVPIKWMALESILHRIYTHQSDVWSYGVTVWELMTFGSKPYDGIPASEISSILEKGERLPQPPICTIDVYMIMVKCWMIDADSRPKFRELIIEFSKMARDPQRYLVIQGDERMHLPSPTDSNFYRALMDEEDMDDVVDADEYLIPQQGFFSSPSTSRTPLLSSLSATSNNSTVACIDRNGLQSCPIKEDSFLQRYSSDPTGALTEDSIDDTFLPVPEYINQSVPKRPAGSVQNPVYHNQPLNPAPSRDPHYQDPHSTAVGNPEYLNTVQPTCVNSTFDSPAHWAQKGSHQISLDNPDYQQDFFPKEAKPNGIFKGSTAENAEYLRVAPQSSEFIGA
How it was run: as §1

EGFR[T790M/C797S/L858R] = target: T3, EGFR[T790M/C797S/L858R] (Homo sapiens, UniProt P00533, C797S/L858R/T790M); assay: Inhibition of EGFR[T790M/C797S/L858R] biochemical enzymatic activity (HTRF); conditions: EGFR[T790M/C797S/L858R], 1 mM ATP, 1 h at room temperature
T3 construct: purchased Carna Bio
How it was run: as §1

EGFR (d746-750 C797S) = target: T4, EGFR (d746-750 C797S) (Homo sapiens, UniProt P00533, C797S/DEL746-750); assay: Inhibition of EGFR (d746-750 C797S) biochemical enzymatic activity (HTRF); conditions: EGFR (d746-750 C797S), 1 mM ATP, 1 h at room temperature
T4 construct: purchased signalchem
T4 sequence (P00533 with tags, fused parts or gaps DEL746-750/C797S limits assumed): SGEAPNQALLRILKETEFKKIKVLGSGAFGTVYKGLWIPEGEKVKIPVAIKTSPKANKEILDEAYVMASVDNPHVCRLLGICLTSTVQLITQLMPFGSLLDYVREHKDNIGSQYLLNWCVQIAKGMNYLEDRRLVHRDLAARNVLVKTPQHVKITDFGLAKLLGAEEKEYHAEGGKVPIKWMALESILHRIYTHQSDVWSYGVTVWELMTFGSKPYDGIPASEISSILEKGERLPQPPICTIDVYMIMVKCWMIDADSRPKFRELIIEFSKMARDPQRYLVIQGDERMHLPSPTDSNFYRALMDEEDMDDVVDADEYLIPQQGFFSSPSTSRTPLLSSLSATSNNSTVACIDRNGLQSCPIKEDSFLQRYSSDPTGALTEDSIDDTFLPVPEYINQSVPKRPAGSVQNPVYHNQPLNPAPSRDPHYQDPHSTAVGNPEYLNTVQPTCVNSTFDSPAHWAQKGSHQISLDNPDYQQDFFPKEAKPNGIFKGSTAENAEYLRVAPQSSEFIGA
How it was run: as §1

[1] = target: T5, EGFR[T790M/C797S/d746-750] (Homo sapiens, UniProt P00533, C797S/DEL746-750/T790M); assay: Inhibition of EGFR[T790M/C797S/d746-750] biochemical enzymatic activity (HTRF); conditions: 1 mM ATP, 1 h at room temperature
T5 construct: purchased Carna Bio
T5 sequence (P00533 with tags, fused parts or gaps DEL746-750/T790M/C797S limits assumed): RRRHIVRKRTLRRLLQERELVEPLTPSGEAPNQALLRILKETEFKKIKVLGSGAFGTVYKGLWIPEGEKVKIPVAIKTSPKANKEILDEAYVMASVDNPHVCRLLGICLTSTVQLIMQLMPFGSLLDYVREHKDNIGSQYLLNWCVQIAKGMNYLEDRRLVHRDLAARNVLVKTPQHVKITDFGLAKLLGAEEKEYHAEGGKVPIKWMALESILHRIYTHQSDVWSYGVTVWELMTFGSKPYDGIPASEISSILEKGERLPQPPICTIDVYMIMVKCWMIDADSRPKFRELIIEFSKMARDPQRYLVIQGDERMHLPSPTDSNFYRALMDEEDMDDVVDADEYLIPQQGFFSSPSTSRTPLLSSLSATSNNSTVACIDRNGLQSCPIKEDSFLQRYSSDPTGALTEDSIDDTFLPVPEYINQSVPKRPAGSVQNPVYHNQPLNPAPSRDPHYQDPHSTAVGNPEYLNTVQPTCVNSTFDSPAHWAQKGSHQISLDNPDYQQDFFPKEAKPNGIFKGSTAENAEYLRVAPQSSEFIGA
How it was run: as §1

EGFR (C797S L858R) = target: T6, EGFR (C797S L858R) (Homo sapiens, UniProt P00533, C797S/L858R); assay: Inhibition of EGFR (C797S L858R) biochemical enzymatic activity (HTRF); conditions: EGFR (C797S L858R), 1 mM ATP, 1 h at room temperature
T6 construct: purchased signalchem
How it was run: as §1

EGFR L858R/T790M = target: T7, EGFR L858R/T790M (Homo sapiens, UniProt P00533, L858R/T790M); assay: Inhibition of EGFR L858R/T790M biochemical enzymatic activity (HTRF); conditions: EGFR L858R/T790M, 1 mM ATP, 1 h at room temperature
T7 construct: purchased Carna Bio
How it was run: as §1

EGFR Exon19Del = target: T8, EGFR Exon19Del (Homo sapiens, UniProt P00533, DEL746-750); assay: Inhibition of EGFR Exon19Del biochemical enzymatic activity (HTRF); conditions: 1 mM ATP, 1 h at room temperature
T8 construct: purchased Carna Bio
T8 sequence (P00533 with tags, fused parts or gaps DEL746-750 limits assumed): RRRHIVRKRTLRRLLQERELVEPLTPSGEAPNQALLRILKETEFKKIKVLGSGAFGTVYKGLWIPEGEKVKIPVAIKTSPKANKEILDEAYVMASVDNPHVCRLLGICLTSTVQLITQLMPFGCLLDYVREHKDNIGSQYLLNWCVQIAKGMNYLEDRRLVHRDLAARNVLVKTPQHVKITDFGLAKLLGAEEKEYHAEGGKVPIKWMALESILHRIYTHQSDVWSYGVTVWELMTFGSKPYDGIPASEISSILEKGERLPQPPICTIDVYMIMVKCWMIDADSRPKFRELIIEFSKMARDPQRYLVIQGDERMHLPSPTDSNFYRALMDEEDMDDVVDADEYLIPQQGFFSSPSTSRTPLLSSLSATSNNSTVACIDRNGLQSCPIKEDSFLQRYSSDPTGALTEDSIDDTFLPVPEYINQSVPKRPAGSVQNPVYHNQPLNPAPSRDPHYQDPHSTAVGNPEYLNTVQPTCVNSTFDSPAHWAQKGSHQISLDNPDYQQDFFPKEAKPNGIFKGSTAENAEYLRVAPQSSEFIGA
How it was run: as §1

PC-9 = assay: Cell proliferation assay, PC-9 cells (CellTiter-Glo, 72 hours); format: cell-based; conditions: PC9 cells, read-out: GI50 PC9
How it was run: (§2)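 Ba/F3 cells (5000/well) and PC-9 cells (500/well, RPMI1640 with 10% FBS) were plated overnight and then dosed with a compound concentration series. Viable cells were read at day 0 (G0) and after treatment (G3). GI50 came from curve fits of G0-corrected proliferation relative to DMSO.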

[2] = test system: Ba/F3 cells expressing EGFR mutations; assay: Cell proliferation assay, Ba/F3 cells expressing EGFR mutations (CellTiter-Glo, 72 hours); format: cell-based
How it was run: as §2

EGFR wild type = target: T9, EGFR wild type (Homo sapiens, UniProt P00533); assay: Inhibition of EGFR wild type biochemical enzymatic activity (HTRF); conditions: EGFR wild type, 1 mM ATP, 1 h at room temperature
T9 construct: purchased Carna Bio
T9 sequence (P00533 25-1210): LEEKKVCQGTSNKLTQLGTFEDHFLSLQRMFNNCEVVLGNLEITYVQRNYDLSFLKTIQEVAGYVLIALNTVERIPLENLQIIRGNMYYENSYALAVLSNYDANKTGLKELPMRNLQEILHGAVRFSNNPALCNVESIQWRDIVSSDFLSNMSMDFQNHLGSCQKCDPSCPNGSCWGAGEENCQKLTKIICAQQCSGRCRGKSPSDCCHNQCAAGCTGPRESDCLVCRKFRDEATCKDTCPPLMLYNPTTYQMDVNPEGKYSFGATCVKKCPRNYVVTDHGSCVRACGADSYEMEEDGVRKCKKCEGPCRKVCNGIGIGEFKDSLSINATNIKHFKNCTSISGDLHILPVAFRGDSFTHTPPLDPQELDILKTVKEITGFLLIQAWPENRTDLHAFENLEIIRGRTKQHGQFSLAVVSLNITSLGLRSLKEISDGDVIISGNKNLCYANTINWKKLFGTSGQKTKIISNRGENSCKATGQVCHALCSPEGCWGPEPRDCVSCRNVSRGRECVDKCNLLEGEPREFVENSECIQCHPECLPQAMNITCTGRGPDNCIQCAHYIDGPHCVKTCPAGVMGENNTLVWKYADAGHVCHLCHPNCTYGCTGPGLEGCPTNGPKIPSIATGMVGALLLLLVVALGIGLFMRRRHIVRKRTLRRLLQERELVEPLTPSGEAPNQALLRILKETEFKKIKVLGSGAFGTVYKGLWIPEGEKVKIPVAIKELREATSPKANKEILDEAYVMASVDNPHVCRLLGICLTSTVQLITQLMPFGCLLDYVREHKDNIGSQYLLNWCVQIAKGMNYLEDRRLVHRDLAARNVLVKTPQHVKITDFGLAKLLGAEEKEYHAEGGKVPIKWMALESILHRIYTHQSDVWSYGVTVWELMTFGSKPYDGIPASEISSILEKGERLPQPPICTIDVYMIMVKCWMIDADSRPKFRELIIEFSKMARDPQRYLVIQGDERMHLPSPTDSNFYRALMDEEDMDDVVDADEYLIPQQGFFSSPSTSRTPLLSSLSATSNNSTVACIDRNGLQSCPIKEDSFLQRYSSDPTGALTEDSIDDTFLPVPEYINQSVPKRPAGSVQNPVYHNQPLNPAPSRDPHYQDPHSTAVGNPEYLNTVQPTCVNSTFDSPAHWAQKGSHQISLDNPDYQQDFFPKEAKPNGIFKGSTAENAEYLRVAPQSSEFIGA
How it was run: as §1

A-431 = assay: Cell proliferation assay, A-431 cells (GI50, Table 6); format: cell-based
[3] = read-out: IC50 @T790M- C797S - L858R
[4] = EGFR[T790M/C797S/d746-750], read-out: IC50 @T790M - C797S - Del19
[5] = EGFR Exon19Del, read-out: IC50 @Del19
[6] = Mus musculus, BaF3, 72 h, BaF3 cells, EGFR DEL19 - C797S, read-out: GI50 DEL19 - C797S/BaF3
[7] = Mus musculus, BaF3, 72 h, BaF3 cells, EGFR DEL19 - T790-C797S, read-out: GI50 DEL19 - T790-C797S/BaF3
[8] = Mus musculus, BaF3, 72 h, BaF3 cells, EGFR L858R - C797S, read-out: GI50 L858R - C797S/BaF3
[9] = Mus musculus, BaF3, 72 h, BaF3 cells, EGFR L858R - T790-C797S, read-out: GI50 L858R - T790-C797S/BaF3
[10] = Mus musculus, BaF3, 72 h, BaF3 cells, EGFR L858R - T790M, read-out: GI50 L858R - T790M/BaF3
[11] = Mus musculus, BaF3, 72 h, BaF3 cells, EGFR L858R, read-out: GI50 L858R/BaF3
[12] = Mus musculus, BaF3, 72 h, EGFR DEL19 - T790M, read-out: GI50 DEL19 - T790M
[13] = Homo sapiens, A-431, A-431 cells
[14] = BaF3 cells, EGFR DEL19 - C797S, read-out: GI50 DEL19 - C797S/BaF3
[15] = BaF3 cells, EGFR DEL19 - T790-C797S, read-out: GI50 DEL19 - T790-C797S/BaF3
[16] = BaF3 cells, EGFR L858R - C797S, read-out: GI50 L858R - C797S/BaF3
[17] = BaF3 cells, EGFR L858R - T790-C797S, read-out: GI50 L858R - T790-C797S/BaF3
[18] = BaF3 cells, EGFR L858R - T790M, read-out: GI50 L858R - T790M/BaF3
[19] = BaF3 cells, EGFR L858R, read-out: GI50 L858R/BaF3
[20] = EGFR DEL19 - T790M, read-out: GI50 DEL19 - T790M

T1 sequence (P00533 25-1210 L858R): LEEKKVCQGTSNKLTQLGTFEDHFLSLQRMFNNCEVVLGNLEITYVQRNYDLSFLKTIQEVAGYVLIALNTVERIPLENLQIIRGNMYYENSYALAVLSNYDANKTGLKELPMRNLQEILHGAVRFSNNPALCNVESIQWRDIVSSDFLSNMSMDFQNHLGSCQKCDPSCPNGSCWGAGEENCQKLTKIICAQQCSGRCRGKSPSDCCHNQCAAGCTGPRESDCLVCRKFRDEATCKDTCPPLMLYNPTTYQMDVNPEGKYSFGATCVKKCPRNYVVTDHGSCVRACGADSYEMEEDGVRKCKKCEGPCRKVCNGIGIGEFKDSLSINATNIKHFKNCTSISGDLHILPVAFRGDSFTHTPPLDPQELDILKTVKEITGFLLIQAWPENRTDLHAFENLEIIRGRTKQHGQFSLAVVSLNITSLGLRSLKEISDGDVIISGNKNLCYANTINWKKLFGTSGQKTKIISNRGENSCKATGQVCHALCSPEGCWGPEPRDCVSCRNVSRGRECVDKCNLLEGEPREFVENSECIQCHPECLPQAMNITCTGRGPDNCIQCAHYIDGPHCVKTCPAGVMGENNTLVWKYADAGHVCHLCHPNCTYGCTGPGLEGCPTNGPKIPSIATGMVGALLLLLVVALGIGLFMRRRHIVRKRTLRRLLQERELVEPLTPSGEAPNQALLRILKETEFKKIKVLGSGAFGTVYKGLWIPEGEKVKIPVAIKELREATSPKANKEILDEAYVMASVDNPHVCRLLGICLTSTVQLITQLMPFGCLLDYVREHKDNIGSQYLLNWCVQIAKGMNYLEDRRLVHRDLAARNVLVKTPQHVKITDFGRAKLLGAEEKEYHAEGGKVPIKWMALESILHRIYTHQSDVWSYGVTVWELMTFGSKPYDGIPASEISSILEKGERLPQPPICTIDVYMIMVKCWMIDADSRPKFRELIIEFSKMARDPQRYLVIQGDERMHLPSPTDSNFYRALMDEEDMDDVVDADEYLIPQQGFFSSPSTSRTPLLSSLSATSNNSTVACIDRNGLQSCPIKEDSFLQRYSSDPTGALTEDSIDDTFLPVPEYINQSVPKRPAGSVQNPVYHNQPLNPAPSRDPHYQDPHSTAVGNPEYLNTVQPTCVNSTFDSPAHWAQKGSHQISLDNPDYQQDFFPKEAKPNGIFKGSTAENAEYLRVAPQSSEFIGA

Row | Compound | IC50 (EGFR L858R; read-out: IC50 @L858R) [nM] | IC50 (EGFR Exon19Del/T790M; read-out: IC50 @Del19-T790M) [nM] | IC50 (EGFR[T790M/C797S/L858R]; [3]) [nM] | IC50 (EGFR (d746-750 C797S); read-out: IC50 @Del19-C797S) [nM] | IC50 [1, 4] [nM] | IC50 (EGFR (C797S L858R); read-out: IC50 @L858-C797S) [nM] | IC50 (EGFR L858R/T790M; read-out: IC50 @L858R-T790M) [nM] | IC50 (EGFR Exon19Del; [5]) [nM] | GI50 (PC-9; Homo sapiens, PC-9, 72 h) [nM] | GI50 [2, 6] [nM] | IC50 (EGFR wild type; read-out: IC50 @WT) [nM] | GI50 (PC-9) [nM] | GI50 [2, 14] [nM] | GI50 [2, 15] [nM] | GI50 [2, 16] [nM] | GI50 [2, 17] [nM] | GI50 [2, 18] [nM] | GI50 [2, 19] [nM] | GI50 [2, 20] [nM] | GI50 (A-431; A-431 cells) [nM] | other results
1 | Cc1cc2cc(n1)-c1cc(=O)n(C)cc1OCCC[C@@H](C)Cn1c(nc3ccccc31)NC2=O [Example B11, (12R)-5,12,27-Trimethyl-8-oxa-5,14,21,23,28-pentaazapentacyclo[23.3.1.0^{2,7}.0^{14,22}.0^{15,20}]nonacosa-1(29),2,6,15,17,19,21,25,27-nonaene-4,24-dione] | > 5000 | 510 | > 5000 | 4320 | 401 | > 5000 | > 5000 | > 5000 | 1490 | 626 | > 5000 | – | – | – | – | – | – | – | – | – | GI50 [2, 7]: 269 nM; GI50 [2, 8]: 2440 nM; GI50 [2, 9]: 764 nM; GI50 [2, 10]: 2520 nM; GI50 [2, 11]: 3570 nM; GI50 [2, 12]: 441 nM; GI50 (A-431; [13]): 5380 nM
2 | Cc1cc2cc(n1)-c1cnn(C)c1OCCN1CC3CCC(C3)(C1)n1c(nc3ccc(N4CCC(N5CCOCC5)C4)cc31)NC2=O (single isomer, unassigned) [Example B44B2] | 267 | 8.4 | 5.5 | 8.5 | 7 | 66 | 14 | 21 | – | – | 4900 | 22 | 2 | 2 | 11 | 2 | 2 | 19 | 8 | 3060 | –
3 | Cc1cc2cc(n1)-c1cnn(C)c1OCCN1CC3CCC(C3)(C1)n1c(nc3ccc(N4CCN(C5CC5)CC4)cc31)NC2=O (single isomer, unassigned) [Example B55B] | 64 | 3.2 | 1.5 | 1.7 | 1.6 | 6 | 2.3 | 4.3 | – | – | 1830 | 10 | 2 | 2 | 11 | 2 | 2 | 17 | 7 | 2080 | –
4 | Cc1cc2cc(n1)-c1cnn(C)c1OCCN1CC3CCC(C3)(C1)n1c(nc3ccc(N4CCC5(CC4)CCN5C)cc31)NC2=O (single isomer, unassigned) [Example B54A] | > 5000 | 647 | > 5000 | 4720 | 233 | > 5000 | > 5000 | > 5000 | – | – | > 5000 | 515 | 280 | 241 | 584 | 107 | 298 | 801 | 527 | 3410 | –
5 | Cc1cc2cc(n1)-c1cnn(C)c1OCCN1CC3CCC(CC3)(C1)n1c(nc3ccc(N4CCC(N(C)C)CC4)cc31)NC2=O [Example B27, 5-[4-(dimethylamino)piperidin-1-yl]-15,21-dimethyl-23-oxa-2,9,11,16,20,21,26-heptaazaheptacyclo[26.2.2.1^{1,26}.1^{13,17}.0^{2,10}.0^{3,8}.0^{18,22}]tetratriaconta-3,5,7,9,13,15,17(34),18(22),19-nonaen-12-one] | – | – | – | – | – | – | – | – | 19 | 2 | – | – | – | – | – | – | – | – | – | – | IC50 (EGFR L858R; IC50 @L858R): 67 nM; IC50 (EGFR Exon19Del/T790M; IC50 @Del19-T790M): 8.3 nM; IC50 (EGFR[T790M/C797S/L858R]; IC50 @T790M- C797S - L858R): 3.8 nM; IC50 (EGFR (d746-750 C797S); IC50 @Del19-C797S): 6.3 nM; IC50 ([1]; IC50 @T790M - C797S - Del19, EGFR[T790M/C797S/d746-750]): 3.1 nM; IC50 (EGFR (C797S L858R); IC50 @L858-C797S): 30 nM; IC50 (EGFR L858R/T790M; IC50 @L858R-T790M): 8.3 nM; IC50 (EGFR Exon19Del; IC50 @Del19, EGFR Exon19Del): 11 nM; GI50 [2, 7]: 2 nM; GI50 [2, 8]: 22 nM; GI50 [2, 9]: 2 nM; GI50 [2, 10]: 5 nM; GI50 [2, 11]: 17 nM; GI50 [2, 12]: 2 nM; IC50 (EGFR wild type; IC50 @WT): 3540 nM; GI50 (A-431; [13]): 3600 nM
